The values that follow come from patent US10544130B2, “Metallo-beta-lactamase inhibitors” (priority 2015, dated 2020).

Structures can show the parent of a compound that is named as a salt. Where two headings read alike, the source gives them in different places.

The subject of series [1] is Serratia marcescens expressing IMP-1 (CL5741). Type of series: cell-based. The note with it: with imipenem 1 μg/ml; 95% inhibition of bacterial growth. The essentials:
(§1)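 Growth read by absorbance after 22–24 h at 35 °C in CAMHB, with test compound alone or combined with 1 μg/ml imipenem. Inocula came from overnight 35 °C blood-agar colonies, set to a defined OD600 and diluted 1:100. Value is the inhibitor concentration giving synergy.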

Series [2] has as its system Klebsiella pneumoniae expressing VIM-1 (IHMA599644). Format: cell-based. The following applies: with imipenem 1 μg/ml; 95% inhibition of bacterial growth. The essentials:
as §1

Series [3] concerns Escherichia coli expressing NDM-1 (CLB30005, CLB30016). Format: cell-based. The note with it: with imipenem 1 μg/ml; 95% inhibition of bacterial growth. The essentials: as §1
Series [4] relates to Pseudomonas aeruginosa PAO1 MB9798 (efflux+, IMP-1). The note with it: imipenem at 2 μg/mL. In outline:
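Isogenic PAO1 pair (efflux+ MB9798, efflux− MB9799, both IMP-1) tested by microbroth MIC with fixed imipenem and/or ceftazidime, usually at CLSI breakpoint, plus fixed class A/C inhibitor against AmpC. MBL inhibitor titrated; concentration restoring susceptibility recorded and fold difference between strains taken as efflux extent.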

[5] abbreviates: ratio MITC95 PA 9798/MITC95 PA 9799.
[6] abbreviates: fold difference between efflux + (MB9798) and efflux − (MB9799) strains.

On to `NCC(CN)NS(=O)(=O)c1ccc(-c2cccc(-c3c[nH]c(N)n3)c2)c(-c2nn[nH]n2)c1S(N)(=O)=O` [Example 435, 3′-(2-amino-1H-imidazol-4-yl)-N4-(1,3-diaminopropan-2-yl)-2-(2H-tetrazol-5-yl)-[1,1′-biphenyl]-3,4-disulfonamide], for which, in series [1], the “Serratia marcescens (IMP-1) MITC95” value was determined as 3.125 µM. The “Klebsiella pneumoniae (VIM-1) MITC95” value in series [2] was found to be 3.125 µM. Besides, the “Escherichia coli (NDM-1) MITC95” value in series [3] is 1.563 µM.

With `NCc1nc(-c2cccc(-c3ccc(S(=O)(=O)N[C@H]4CNC[C@H]4N)c(S(N)(=O)=O)c3-c3nn[nH]n3)c2)c[nH]1` [Example 462], in series [1], the “Serratia marcescens (IMP-1) MITC95” value stood at 1.563 µM. In addition, the “Klebsiella pneumoniae (VIM-1) MITC95” value in series [2] came to 1.563 µM. Besides, the “Escherichia coli (NDM-1) MITC95” value in series [3] amounted to 1.563 µM.

Consider `Cn1nnc2c(-c3ccc(S(=O)(=O)N[C@H]4CCNC4)c(S(N)(=O)=O)c3-c3nn[nH]n3)cccc21` [Example 293, (S)-4-(1-methyl-1H-benzo[d][1,2,3]triazol-4-yl)-N1-(pyrrolidin-3-yl)-3-(2H-tetrazol-5-yl)benzene-1,2-disulfonamide], for which the “Serratia marcescens (IMP-1) MITC95” value in series [1] was 3.125 µM. Further, in series [2], the “Klebsiella pneumoniae (VIM-1) MITC95” value was 3.125 µM. In addition, the “Escherichia coli (NDM-1) MITC95” value in series [3] was found to be 3.125 µM.

With `Nc1ncc(-c2cc(-c3ccc(S(=O)(=O)N[C@@H]4CCNC4)c(S(N)(=O)=O)c3-c3nnn[nH]3)ccn2)[nH]1` [Example 440, (R)-4-(2-(2-Amino-1H-imidazol-5-yl)pyridin-4-yl)-N^1-(pyrrolidin-3-yl)-3-(1H-tetrazol-5-yl)benzene-1,2-disulfonamide], the “Serratia marcescens (IMP-1) MITC95” value in series [1] amounted to 1.563 µM. In addition, in series [2], the “Klebsiella pneumoniae (VIM-1) MITC95” value came to 1.563 µM. In addition, in series [3], the “Escherichia coli (NDM-1) MITC95” value worked out at 0.7813 µM.

Regarding `NCCNCc1sc(N)nc1-c1cccc(-c2ccc(S(=O)(=O)N[C@@H]3CCNC3)c(S(N)(=O)=O)c2-c2nnn[nH]2)c1` [Example 433, (R)-3′-(2-amino-5-(((2-aminoethyl)amino)methyl)thiazol-4-yl)-N^4-(pyrrolidin-3-yl)-2-(1H-tetrazol-5-yl)-[1,1′-biphenyl]-3,4-disulfonamide], in series [1], the “Serratia marcescens (IMP-1) MITC95” value is 1.563 µM. Further, in series [2], the “Klebsiella pneumoniae (VIM-1) MITC95” value came out at 1.563 µM. Besides, the “Escherichia coli (NDM-1) MITC95” value in series [3] came out at 0.7813 µM.

With `C[C@@H](N)CNS(=O)(=O)c1ccc(-c2cccc3sc(N)nc23)c(-c2nn[nH]n2)c1S(N)(=O)=O` [Example 390, 4-(2-amino-1,3-benzothiazol-4-yl)-N^1-[(2R)-2-aminopropyl]-3-(2H-tetrazol-5-yl)benzene-1,2-disulfonamide], the “Serratia marcescens (IMP-1) MITC95” value in series [1] was found to be 1.563 µM. For the same compound, the “Klebsiella pneumoniae (VIM-1) MITC95” value in series [2] turned out to be 3.125 µM. For the same compound, the “Escherichia coli (NDM-1) MITC95” value in series [3] turned out to be 3.125 µM.

As for `NCCNC(=O)c1cc(Cl)cc(-c2ccc(S(=O)(=O)NCCN)c(S(N)(=O)=O)c2-c2nn[nH]n2)c1N` [Example 447, 2-Amino-N-(2-aminoethyl)-4′-(N-(2-aminoethyl)sulfamoyl)-5-chloro-3′-sulfamoyl-2′-(2H-tetrazol-5-yl)-[1,1′-biphenyl]-3-carboxamide], the “Serratia marcescens (IMP-1) MITC95” value in series [1] is 0.7813 µM. Moreover, the “Klebsiella pneumoniae (VIM-1) MITC95” value in series [2] is 1.563 µM. In addition, in series [3], the “Escherichia coli (NDM-1) MITC95” value came out at 0.7813 µM.

Take `NCCNC(=O)c1cc(-c2ccc(S(=O)(=O)NCCN)c(S(N)(=O)=O)c2-c2nn[nH]n2)ccc1N` [Example 451, 4-Amino-N-(2-aminoethyl)-4′-(N-(2-aminoethyl)sulfamoyl)-3′-sulfamoyl-2′-(2H-tetrazol-5-yl)-[1,1′-biphenyl]-3-carboxamide]: the “Serratia marcescens (IMP-1) MITC95” value in series [1] worked out at 0.7813 µM. In series [2], the “Klebsiella pneumoniae (VIM-1) MITC95” value was found to be 0.7813 µM. Further, the “Escherichia coli (NDM-1) MITC95” value in series [3] is 0.7813 µM.

As to `NCCNC(=O)c1cc(Cl)cc(-c2ccc(S(=O)(=O)N[C@@H]3CCNC3)c(S(N)(=O)=O)c2-c2nn[nH]n2)c1N` [Example 450, (R)-2-Amino-N-(2-aminoethyl)-5-chloro-4′-(N-(pyrrolidin-3-yl)sulfamoyl)-3′-sulfamoyl-2′-(2H-tetrazol-5-yl)-[1,1′-biphenyl]-3-carboxamide], the “Serratia marcescens (IMP-1) MITC95” value in series [1] came to 1.563 µM. In addition, the “Klebsiella pneumoniae (VIM-1) MITC95” value in series [2] was 1.563 µM. In addition, the “Escherichia coli (NDM-1) MITC95” value in series [3] came to 1.563 µM.

For `C[C@H](N)Cc1nc2c(-c3ccc(S(=O)(=O)N[C@@H]4CCNC4)c(S(N)(=O)=O)c3-c3nn[nH]n3)cccc2[nH]1` [Example 441, 4-(2-((S)-2-Aminopropyl)-1H-benzo[d]imidazol-4-yl)-N1-((R)-pyrrolidin-3-yl)-3-(2H-tetrazol-5-yl)benzene-1,2-disulfonamide], the “Serratia marcescens (IMP-1) MITC95” value in series [1] was 1.563 µM. In addition, the “Klebsiella pneumoniae (VIM-1) MITC95” value in series [2] was 1.563 µM. Besides, in series [3], the “Escherichia coli (NDM-1) MITC95” value came to 1.563 µM.

In the case of `NC[C@H]1CCN(S(=O)(=O)c2ccc(-c3cccc4[nH]c(N)nc34)c(-c3nn[nH]n3)c2S(N)(=O)=O)C1` [Example 253, (R)-3-(2-amino-1H-benzo[d]imidazol-4-yl)-6-((3-(aminomethyl)pyrrolidin-1-yl)sulfonyl)-2-(2H-tetrazol-5-yl)benzenesulfonamide], in series [1], the “Serratia marcescens (IMP-1) MITC95” value amounted to 0.7813 µM. For the same compound, the “Klebsiella pneumoniae (VIM-1) MITC95” value in series [2] is 1.563 µM. The “Escherichia coli (NDM-1) MITC95” value in series [3] stood at 1.563 µM.

Take `NCCNS(=O)(=O)c1ccc(-c2cccc(NC(=O)[C@@H](N)CN)c2)c(-c2nn[nH]n2)c1S(N)(=O)=O` [Example 453, (S)-2,3-Diamino-N-(4′-(N-(2-aminoethyl)sulfamoyl)-3′-sulfamoyl-2′-(2H-tetrazol-5-yl)-[1,1′-biphenyl]-3-yl)propanamide]: the “Serratia marcescens (IMP-1) MITC95” value in series [1] came to 3.125 µM. Moreover, in series [2], the “Klebsiella pneumoniae (VIM-1) MITC95” value amounted to 3.125 µM. In series [3], the “Escherichia coli (NDM-1) MITC95” value is 1.563 µM.

In the case of `NCCNS(=O)(=O)c1ccc(-c2ccc3nccn3c2)c(-c2nn[nH]n2)c1S(N)(=O)=O` [Example 401, N^1-(2-aminoethyl)-4-(imidazo[1,2-a]pyridin-6-yl)-3-(2H-tetrazol-5-yl)benzene-1,2-disulfonamide], the “Klebsiella pneumoniae (VIM-1) MITC95” value in series [2] was 1.563 µM. In addition, in series [3], the “Escherichia coli (NDM-1) MITC95” value amounted to 0.7813 µM.

As to `NCc1nc2c(-c3ccc(S(=O)(=O)N[C@H](CN)CO)c(S(N)(=O)=O)c3-c3nn[nH]n3)cccc2s1` [Example 363, (R)—N1-(1-amino-3-hydroxypropan-2-yl)-4-(2-(aminomethyl)benzo[d]thiazol-4-yl)-3-(2H-tetrazol-5-yl)benzene-1,2-disulfonamide], in series [2], the “Klebsiella pneumoniae (VIM-1) MITC95” value was 3.125 µM. Besides, in series [3], the “Escherichia coli (NDM-1) MITC95” value came to 3.125 µM. For the same compound, the Efflux ratio in series [4] (setting [5]) is recorded as 4.00.

For `NC[C@]1(NS(=O)(=O)c2ccc(-c3ccc(N)nc3)c(-c3nn[nH]n3)c2S(N)(=O)=O)CCNC1` [Example 486, (R)-N1-(3-(aminomethyl)pyrrolidin-3-yl)-4-(6-aminopyridin-3-yl)-3-(2H-tetrazol-5-yl)benzene-1,2-disulfonamide dihydrochloride], in series [2], the “Klebsiella pneumoniae (VIM-1) MITC95” value was 1.563 µM. In series [3], the “Escherichia coli (NDM-1) MITC95” value amounted to 0.7813 µM. Moreover, in series [4] (setting [6]), the Efflux ratio is 2.00.

As to `CN(C1CNC1)S(=O)(=O)c1ccc(-c2cccc3[nH]c(N)nc23)c(-c2nn[nH]n2)c1S(N)(=O)=O` [Example 255, 4-(2-amino-1H-benzo[d]imidazol-4-yl)-N1-(azetidin-3-yl)-N1-methyl-3-(2H-tetrazol-5-yl)benzene-1,2-disulfonamide], in series [1], the “Serratia marcescens (IMP-1) MITC95” value came to 0.7813 µM. Moreover, the “Klebsiella pneumoniae (VIM-1) MITC95” value in series [2] was found to be 0.7813 µM. The Efflux ratio in series [4] (setting [5]) is listed as 2.00.

In the case of `C[C@H](N)c1nc2c(-c3ccc(S(=O)(=O)N[C@@H]4CCNC4)c(S(N)(=O)=O)c3-c3nn[nH]n3)cccc2[nH]1` [Example 272, 4-(2-((S)-1-aminoethyl)-1H-benzo[d]imidazol-4-yl)-N1-((R)-pyrrolidin-3-yl)-3-(2H-tetrazol-5-yl)benzene-1,2-disulfonamide], the “Serratia marcescens (IMP-1) MITC95” value in series [1] turned out to be 1.563 µM. In addition, the “Klebsiella pneumoniae (VIM-1) MITC95” value in series [2] is 1.563 µM. Moreover, the Efflux ratio in series [4] (setting [5]) was 2.00.

In the case of `NCc1nc2c(-c3ccc(S(=O)(=O)N[C@@H]4CCNC4)c(S(N)(=O)=O)c3-c3nn[nH]n3)cccc2s1` [Example 276, (R)-4-(2-(aminomethyl)benzo[d]thiazol-4-yl)-N1-(pyrrolidin-3-yl)-3-(2H-tetrazol-5-yl)benzene-1,2-disulfonamide], the “Serratia marcescens (IMP-1) MITC95” value in series [1] stood at 0.7813 µM. For the same compound, the “Klebsiella pneumoniae (VIM-1) MITC95” value in series [2] worked out at 0.7813 µM. Moreover, in series [4] (setting [5]), the Efflux ratio was 1.00.

`NC[C@@]1(NS(=O)(=O)c2ccc(-c3ccc(N)nc3)c(-c3nn[nH]n3)c2S(N)(=O)=O)CCNC1` [Example 487, (S)-N1-(3-(aminomethyl)pyrrolidin-3-yl)-4-(6-aminopyridin-3-yl)-3-(2H-tetrazol-5-yl)benzene-1,2-disulfonamide dihydrochloride]: the “Serratia marcescens (IMP-1) MITC95” value in series [1] was determined as 0.7813 µM. The “Klebsiella pneumoniae (VIM-1) MITC95” value in series [2] came out at 1.563 µM. Also, in series [4] (setting [6]), the Efflux ratio was 1.00.

In the case of `NCCNS(=O)(=O)c1ccc(-c2cccc(-c3c[nH]c(N)n3)c2)c(-c2nn[nH]n2)c1S(N)(=O)=O` [Example 353, 3′-(2-amino-1H-imidazol-4-yl)-N4-(2-aminoethyl)-2-(2H-tetrazol-5-yl)-[1,1′-biphenyl]-3,4-disulfonamide], the “Serratia marcescens (IMP-1) MITC95” value in series [1] turned out to be 0.7813 µM. In addition, the “Klebsiella pneumoniae (VIM-1) MITC95” value in series [2] is 1.563 µM. The Efflux ratio in series [4] (setting [5]) was determined as 2.00.
